# According to ChEMBL document CHEMBL1136827, “Further exploration of 1-[2-[Bis-(4-fluorophenyl)methoxy]ethyl]piperazine (GBR 12909): role of N-aromatic, N-heteroaromatic, and 3-oxygenated N-phenylpropyl substituents on affinity for the dopamine and serotonin transporter” (Bioorg Med Chem Lett, 2003):
# Assays:
# [1] = molecular target: Sodium-dependent dopamine transporter (Rattus norvegicus, UniProt P23977); experiment: Binding affinity towards dopamine transporter (DAT)
# [2] = molecular target: Sodium-dependent serotonin transporter (Rattus norvegicus, UniProt P31652); experiment: Binding affinity towards rat serotonin transporter (SERT)
# Sodium-dependent serotonin transporter, sequence (P31652 whole entry): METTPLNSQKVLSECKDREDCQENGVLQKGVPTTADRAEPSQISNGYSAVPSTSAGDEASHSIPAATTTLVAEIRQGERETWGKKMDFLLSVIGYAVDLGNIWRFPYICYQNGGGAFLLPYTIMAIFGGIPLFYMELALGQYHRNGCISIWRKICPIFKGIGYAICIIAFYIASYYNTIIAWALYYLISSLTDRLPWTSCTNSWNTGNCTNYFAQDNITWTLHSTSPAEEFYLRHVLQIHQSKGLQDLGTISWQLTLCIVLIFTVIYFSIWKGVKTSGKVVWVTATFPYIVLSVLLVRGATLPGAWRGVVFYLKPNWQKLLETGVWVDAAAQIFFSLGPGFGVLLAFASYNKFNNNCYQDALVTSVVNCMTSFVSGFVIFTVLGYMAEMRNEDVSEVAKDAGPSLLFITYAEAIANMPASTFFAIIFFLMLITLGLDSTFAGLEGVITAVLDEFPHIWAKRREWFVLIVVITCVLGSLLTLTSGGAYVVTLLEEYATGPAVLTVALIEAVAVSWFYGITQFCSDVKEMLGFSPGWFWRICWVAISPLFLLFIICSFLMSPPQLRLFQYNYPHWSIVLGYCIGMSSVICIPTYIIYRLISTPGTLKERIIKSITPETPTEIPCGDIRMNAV
# Sodium-dependent dopamine transporter, sequence (P23977 whole entry): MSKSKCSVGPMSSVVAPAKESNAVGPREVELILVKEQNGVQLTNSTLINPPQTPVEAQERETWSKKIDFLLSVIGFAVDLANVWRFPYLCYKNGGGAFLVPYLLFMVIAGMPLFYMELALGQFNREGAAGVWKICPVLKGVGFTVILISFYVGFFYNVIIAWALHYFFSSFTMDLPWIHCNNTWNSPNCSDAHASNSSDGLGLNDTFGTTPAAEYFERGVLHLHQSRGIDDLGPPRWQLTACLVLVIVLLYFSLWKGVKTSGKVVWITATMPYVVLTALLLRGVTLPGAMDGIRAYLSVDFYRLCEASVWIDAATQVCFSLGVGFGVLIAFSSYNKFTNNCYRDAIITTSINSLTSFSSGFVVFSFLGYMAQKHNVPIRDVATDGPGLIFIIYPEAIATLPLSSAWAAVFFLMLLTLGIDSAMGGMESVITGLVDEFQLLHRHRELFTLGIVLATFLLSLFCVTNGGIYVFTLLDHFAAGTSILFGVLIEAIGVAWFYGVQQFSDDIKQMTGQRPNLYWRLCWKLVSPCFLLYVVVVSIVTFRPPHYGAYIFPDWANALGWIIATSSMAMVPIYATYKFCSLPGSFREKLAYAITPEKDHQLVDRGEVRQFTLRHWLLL
SMILES,Ki [1] [nM],Ki [2] [nM]
OC(CCN1CCN(CCOC(c2ccc(F)cc2)c2ccc(F)cc2)CC1)c1ccc(Br)cc1 (configuration not stated),2.5,50
O=C(CCN1CCN(CCOC(c2ccccc2)c2ccccc2)CC1)c1cccc(F)c1,260,1360
COc1ccc2c(c1)CCC(CN1CCN(CCOC(c3ccc(F)cc3)c3ccc(F)cc3)CC1)C2=O (configuration not stated),22,3
O=C1CCCCC1CN1CCN(CCOC(c2ccccc2)c2ccccc2)CC1 (configuration not stated),250,3300
OC1CCCC1CN1CCN(CCOC(c2ccc(F)cc2)c2ccc(F)cc2)CC1 (configuration not stated),32,920
O=C1c2ccccc2CCC1CN1CCN(CCOC(c2ccccc2)c2ccccc2)CC1 (configuration not stated),390,1050
OC1CCCC1CN1CCN(CCOC(c2ccccc2)c2ccccc2)CC1 (configuration not stated),170,2200
O=C(CCN1CCN(CCOC(c2ccc(F)cc2)c2ccc(F)cc2)CC1)c1cccc(F)c1,89,220
OC(CCN1CCN(CCOC(c2ccccc2)c2ccccc2)CC1)c1ccc(Br)cc1 (configuration not stated),7.5,340
O=C1CCCCCC1CN1CCN(CCOC(c2ccccc2)c2ccccc2)CC1 (configuration not stated),270,4100
O=C(CCN1CCN(CCOC(c2ccccc2)c2ccccc2)CC1)c1ccc(Br)cc1,290,2600
COc1ccc2c(c1)CC[C@@H](CN1CCN(CCOC(c3ccccc3)c3ccccc3)CC1)[C@@H]2O,40,93
O=C(CCN1CCN(CCOC(c2ccc(F)cc2)c2ccc(F)cc2)CC1)c1ccc(Br)cc1,37,480
O=C(CCN1CCN(CCOC(c2ccccc2)c2ccccc2)CC1)c1cccs1,190,1240
COc1ccc2c(c1)CCC(CN1CCN(CCOC(c3ccc(F)cc3)c3ccc(F)cc3)CC1)=C2,14,57
COc1ccc2c(c1)CC[C@@H](CN1CCN(CCOC(c3ccccc3)c3ccccc3)CC1)[C@H]2O,32,100
OC(CCN1CCN(CCOC(c2ccc(F)cc2)c2ccc(F)cc2)CC1)c1ccco1 (configuration not stated),10,150
OC(CCN1CCN(CCOC(c2ccccc2)c2ccccc2)CC1)c1cccs1 (configuration not stated),15,690
O=C1CCCC1CN1CCN(CCOC(c2ccccc2)c2ccccc2)CC1 (configuration not stated),,5700
O[C@H]1c2ccccc2CC[C@H]1CN1CCN(CCOC(c2ccc(F)cc2)c2ccc(F)cc2)CC1,1.3,30
COc1ccc2c(c1)CC[C@@H](CN1CCN(CCOC(c3ccc(F)cc3)c3ccc(F)cc3)CC1)[C@H]2O,7.3,3
OC(CCN1CCN(CCOC(c2ccc(F)cc2)c2ccc(F)cc2)CC1)c1cccs1 (configuration not stated),7.2,59

SMILES,Ki [1] [nM],Ki [2] [nM]
O=C1CCCCC1CN1CCN(CCOC(c2ccc(F)cc2)c2ccc(F)cc2)CC1 (configuration not stated),62,1130
O=C1c2ccccc2CCC1CN1CCN(CCOC(c2ccc(F)cc2)c2ccc(F)cc2)CC1 (configuration not stated),57,110
COc1ccc2c(c1)CCC(CN1CCN(CCOC(c3ccccc3)c3ccccc3)CC1)=C2,39,530
Fc1ccc(C(OCCN2CCN(CC3=Cc4ccccc4CC3)CC2)c2ccc(F)cc2)cc1,6.4,260
COc1ccc2c(c1)CCC(CN1CCN(CCOC(c3ccccc3)c3ccccc3)CC1)C2=O (configuration not stated),78,70
O=C1CCCCCC1CN1CCN(CCOC(c2ccc(F)cc2)c2ccc(F)cc2)CC1 (configuration not stated),49,530
C1=C(CN2CCN(CCOC(c3ccccc3)c3ccccc3)CC2)CCc2ccccc21,38,1360
O=C1CCCC1CN1CCN(CCOC(c2ccc(F)cc2)c2ccc(F)cc2)CC1 (configuration not stated),84,970
COc1ccc2c(c1)CC[C@@H](CN1CCN(CCOC(c3ccc(F)cc3)c3ccc(F)cc3)CC1)[C@@H]2O,18,3
O[C@@H]1c2ccccc2CC[C@H]1CN1CCN(CCOC(c2ccc(F)cc2)c2ccc(F)cc2)CC1,18,32
O[C@@H]1c2ccccc2CC[C@H]1CN1CCN(CCOC(c2ccccc2)c2ccccc2)CC1,59,440
OC1CCCCC1CN1CCN(CCOC(c2ccc(F)cc2)c2ccc(F)cc2)CC1 (configuration not stated),37,580
OC(CCN1CCN(CCOC(c2ccc(F)cc2)c2ccc(F)cc2)CC1)c1cccc(F)c1 (configuration not stated),3.9,53
O=C(CCN1CCN(CCOC(c2ccccc2)c2ccccc2)CC1)c1ccco1,300,3300
O=C(CCN1CCN(CCOC(c2ccc(F)cc2)c2ccc(F)cc2)CC1)c1cccs1,84,110
OC(CCN1CCN(CCOC(c2ccccc2)c2ccccc2)CC1)c1ccco1 (configuration not stated),19,1940
O[C@H]1c2ccccc2CC[C@H]1CN1CCN(CCOC(c2ccccc2)c2ccccc2)CC1,35,500
OC1CCCCCC1CN1CCN(CCOC(c2ccc(F)cc2)c2ccc(F)cc2)CC1 (configuration not stated),22,480
O=C(CCN1CCN(CCOC(c2ccc(F)cc2)c2ccc(F)cc2)CC1)c1ccco1,72,350
OC1CCCCCC1CN1CCN(CCOC(c2ccccc2)c2ccccc2)CC1 (configuration not stated),210,3900
OC(CCN1CCN(CCOC(c2ccccc2)c2ccccc2)CC1)c1cccc(F)c1 (configuration not stated),4.1,910
OC1CCCCC1CN1CCN(CCOC(c2ccccc2)c2ccccc2)CC1 (configuration not stated),210,3300
